In patent US20110201620A1, “2-(3-AMINOARYL) AMINO-4-ARYL-THIAZOLES AND THEIR USE AS C-KIT INHIBITORS” (AB SCIENCE, priority 2002, published 2011):

Columns and labels:
GIST = conditions: 345 patients, 400 mg/day, cited from earlier work
advanced GIST = conditions: cited from earlier work
[1] = target: c-Kit gain-of-function mutant V559D (exon 11) (Homo sapiens, UniProt P10721, V559D); conditions: in vitro; cited from earlier work

Row | melting point | SMILES | also measured
1 | – | Cc1ccc(NC(=O)c2ccc(CN3CCN(C)CC3)cc2)cc1Nc1nccc(-c2cccnc2)n1 [imatinib] | median PFS (GIST; 95% CI [16-21]): 18 months; 2-year PFS rate (GIST; 95% CI [36-47]): 46%; Median overall survival (OS) (GIST; 95% CI [47-62]): 55 months; 2-year survival (GIST; 95% CI [67-77]): 72%; 3-year survival (GIST): ~61%; 2-year survival rate of patients with advanced GIST (advanced GIST; after introduction of imatinib (pre-imatinib 25%)): about 70%; early resistance (progression within the first 6 months, no response), patients (advanced GIST; in vivo): 10-15%
2 | 145 to 150 °C | Cc1ccc(NC(=O)c2ccc(C(C)(C)C)cc2)cc1Nc1nc(-c2cccnc2)cs1 [Compound 049, 4-tert-Butyl-N-[4-methyl-3-(4-pyridin-3-yl-thiazol-2-ylamino)-phenyl]-benzamide] | –
3 | 197 to 198 °C | Cc1ccc(NC(=O)c2cccc(N(C)C)c2)cc1Nc1nc(-c2cccnc2)cs1 [Compound 088, 3-Dimethylamino-N-[4-methyl-3-(4-pyridin-3-yl-thiazol-2-ylamino)-phenyl]-benzamide] | –
4 | 184 to 186 °C | Cc1ccc(NC(=O)c2cccc(F)c2)cc1Nc1nc(-c2cccnc2)cs1 [Compound 045, 3-Fluoro-N-[4-methyl-3-(4-pyridin-3-yl-thiazol-2-ylamino)-phenyl]-benzamide] | –
5 | 238 to 240 °C | Cc1ccc(NC(=O)Nc2ccc(C)c(Nc3nc(-c4cccnc4)cs3)c2)cc1 [Compound 026, 1-[4-Methyl-3-(4-pyridin-3-yl-thiazol-2-ylamino)-phenyl]-3-p-tolyl-urea] | –
6 | 210 to 215 °C | Cc1ccc(NC(=O)Nc2cccc(F)c2)cc1Nc1nc(-c2cccnc2)cs1 [Compound 025, 1-(3-Fluoro-phenyl)-3-[4-methyl-3-(4-pyridin-3-yl-thiazol-2-ylamino)-phenyl]-urea] | –
7 | 76 to 79 °C | COc1cccc(C(=O)Nc2ccc(C)c(Nc3nc(-c4cccnc4)cs3)c2)c1 [Compound 059] | –
8 | 116 to 120 °C | Cc1ccc(NC(=O)CCCN2CCOCC2)cc1Nc1nc(-c2cccnc2)cs1 [Compound 096, N-[4-Methyl-3-(4-pyridin-3-yl-thiazol-2-ylamino)-phenyl]-4-morpholin-4-yl-butyramide] | –
9 | 75 to 80 °C | Cc1ccc(NC(=O)c2cccc(OCCN3CCOCC3)c2)cc1Nc1nc(-c2cccnc2)cs1 [Compound 052, N-[4-Methyl-3-(4-pyridin-3-yl-thiazol-2-ylamino)-phenyl]-3-(2-morpholin-4-yl-ethoxy)-benzamide] | –
10 | 203 to 206 °C | Cc1ccc(NC(=O)Nc2ccccc2F)cc1Nc1nc(-c2cccnc2)cs1 [Compound 023, 1-(2-Fluoro-phenyl)-3-[4-methyl-3-(4-pyridin-3-yl-thiazol-2-ylamino)-phenyl]-urea] | –
11 | 247 to 248 °C | Cc1ccc(NC(=O)c2cccc(N3CCOCC3)c2)cc1Nc1nc(-c2cccnc2)cs1 [Compound 090, N-[4-Methyl-3-(4-pyridin-3-yl-thiazol-2-ylamino)-phenyl]-3-morpholin-4-yl-benzamide] | –
12 | 230 to 233 °C | Cc1ccc(NC(=O)c2ccc(NS(=O)(=O)c3cccs3)cc2)cc1Nc1nc(-c2cccnc2)cs1 [Compound 044, N-[4-Methyl-3-(4-pyridin-3-yl-thiazol-2-ylamino)-phenyl]-4-(thiophene-2-sulfonylamino)-benzamide] | –
13 | 254 to 256 °C | Cc1ccc(NC(=O)c2ccc(-c3ccncc3)cc2)cc1Nc1nc(-c2cccnc2)cs1 [Compound 046, N-[4-Methyl-3-(4-pyridin-3-yl-thiazol-2-ylamino)-phenyl]-4-pyridin-4-yl-benzamide] | –
14 | 103 to 106 °C | Cc1ccc(F)c(C(=O)Nc2ccc(C)c(Nc3nc(-c4cccnc4)cs3)c2)c1 [Compound 048, 2-Fluoro-5-methyl-N-[4-methyl-3-(4-pyridin-3-yl-thiazol-2-ylamino)-phenyl]-benzamide] | –
15 | – | CS(=O)(=O)O.CS(=O)(=O)O.Cc1ccc(NC(=O)c2ccc(CN3CCN(C)CC3)cc2)cc1Nc1nc(-c2cccnc2)cs1 [masitinib mesilate, 4-(4-methylpiperazin-1-ylmethyl)-N-[4-methyl-3-(4-pyridin-3ylthiazol-2-ylamino)phenyl]benzamide-mesylate methane sulfonic acid salt] | inhibition of c-Kit mutant V559D (exon 11) [1]: potently inhibits
16 | 147 to 150 °C | Cc1ccc(NC(=O)c2ccc(N(C)C)cc2)cc1Nc1nc(-c2cccnc2)cs1 [Compound 047, 4-Dimethylamino-N-[4-methyl-3-(4-pyridin-3-yl-thiazol-2-ylamino)-phenyl]-benzamide] | –
